One experiment has as its target human α-thrombin (Homo sapiens, UniProt P00734). As to the kind of experiment: Determination of Ki: inhibition of human α-thrombin catalysed hydrolysis of chromogenic substrate S-2238. Format: biochemical. How it is done: The inhibition of human α-thrombin was determined by the inhibition of the enzyme catalysed hydrolysis of three different concentrations of the chromogenic substrate S-2238.
200 μl of sample or buffer and 50 μl of S-2238 were incubated at 37° C. for 1 min and 50 μl of human α-thrombin (0.25 NIH μ/ml) was added. The initial rate of inhibited and uninhibited reactions were recorded at […]. The increase in optical density was plotted according to the method of Lineweaver and Burke. The Km and apparent Km were determined and Ki was calculated using the relationship. [formula]
The buffer used contained 0.1M sodium phosphate, 0.2M NaCl, 0.5% PEG and 0.02% sodium azide, adjusted to pH 7.5 with orthophosphoric acid.
The samples consist of the compound dissolved in DMSO.
The reader is referred to Dixon, M and Webb, E. C., "Enzymes", third edition, 1979, Academic Press, the disclosure of which is incorporated herein by reference, for a further description of the measurement of Ki.

The target of the next experiment is elastase. As to the kind of experiment: Inhibition constant (Ki) against elastase. The experiment is classed as biochemical.
Where [1] appears, read: Table 4, 37° C., substrate S-2238.
The mark [2] stands for this setting: Table 6, comparative with prior art compounds, unit inferred.
[3] abbreviates: Table 6, comparative with prior art compounds, unit inferred, read-out: Ki(elastase).
Where [4] appears, read: Table 5, Ki against elastase, 37° C., read-out: Ela.

Read-outs that look alike come from different tables or passages of the source. A value given as a limit tells only on which side of the number the result lay.

As for `CCOP(=O)(OCC)C(OC(=O)C1CCCN1C(=O)C(NC(=O)OCc1ccccc1)C(c1ccccc1)c1ccccc1)c1ccc([N+](=O)[O-])cc1` (racemic) [Example 239, Cbz-DL-Dpa-Pro-CO2 pNO2Phg^P (OEt)2], the Ki on human α-thrombin (setting [1]) was 6200 nM.

For “Cbz-D-Dpa-Pro-.psi.(CO2)-GlyP(-)OPin [Example 177]”, at human α-thrombin (setting [1]), the Ki turned out to be 13700 nM. For the compound “Z-D,L-Dpa-Pro-BoroPhe-OPin [reference compound]”, at human α-thrombin (setting [2]), the Ki was 82 nM. On human α-thrombin (setting [1]), “Z-D,L-Dpa-(CO2)BoroMpgOPin [Example 109]” came in with a Ki of 435 nM.

Compound “Cbz-D-Dpa-Pro-.psi.(COCH2)BoroHpg(-)OPin [Example 270]” returned a Ki at human α-thrombin (setting [1]) of 292 nM. Consider “Z-D-Phe-ProBoroEtgOPin [reference compound]”, for which the Ki at elastase (setting [3]) worked out at 561 nM; on human α-thrombin (setting [2]) it was 1000 nM. `CCOP(=O)(OCC)C(OC(=O)[C@@H]1CCCN1C(=O)C(NC(=O)OCc1ccccc1)C(c1ccccc1)c1ccccc1)c1ccccc1` (mixture of isomers) [Example 264, Cbz-DL-Dpa-Pro.psi.(CO2)Phg^P (OEt)2] came in with a Ki at human α-thrombin (setting [1]) of 16000 nM. Same read-out and setting: then `CC1(C)C2CC3OB(C(Cc4ccccc4)OC(=O)C4CCCN4C(=O)[C@H](NC(=O)OCc4ccccc4)C(c4ccccc4)c4ccccc4)OC3(C)C1C2` (stereo partly drawn) [Example 91, Cbz-D-Dpa-Pro-.psi.(CO2)-boroPhe pinanediol], with 39.2 nM. As to `CC(C)C(OC(=O)C1CCCN1C(=O)C(NC(=O)OCc1ccccc1)C(c1ccccc1)c1ccccc1)B1OC2CC3CC(C3(C)C)C2(C)O1` [Example 87, Benzyloxycarbonyl-D,L-diphenylalanylprolyl-.psi.(CO2)-borovaline pinanediol ester], the Ki on elastase (setting [4]) worked out at 55000 nM; on human α-thrombin (setting [1]) it was 18200 nM. For “Cbz-D-Phe-Pro-.psi.(CO2)-boroethylglycine pinanediol [Example 85]” the same measures were 87 nM and 269 nM. In the case of “Cbz-D-Phe-Pro-.psi.(CH2 O)-BoroPhe-OPin [Example 102]”, the Ki on human α-thrombin (setting [1]) worked out at 148 nM. For `CCC(OC(=O)C1CCCN1C(=O)C(NC(=O)OCc1ccccc1)C(c1ccccc1)c1ccccc1)B1OC2CC3CC(C3(C)C)C2(C)O1` [Example 90, Cbz-D,L-Dpa-Pro-.psi.(CO2)-1-propyl-1-boronate pinanediol], the Ki on elastase (setting [4]) is 4500 nM; at human α-thrombin (setting [1]) it was 247 nM. Take `CC(C)C(NC(=O)C1CCCN1C(=O)C(NC(=O)OCc1ccccc1)C(c1ccccc1)c1ccccc1)B1OC(C)(C)C(C)(C)O1` [Z-D-Dpa-Pro-BoroVal-OPin, reference compound]: at elastase (setting [3]), the Ki is greater than 70800 nM. Consider `CC1(C)C2CC3OB(C(OC(=O)C4CCCN4C(=O)C(NC(=O)OCc4ccccc4)C(c4ccccc4)c4ccccc4)c4ccccc4)OC3(C)C1C2` [Example 101, Cbz-D,L-Dpa-Pro-.psi.(CO2)-BoroPgl pinanediol], for which the Ki at human α-thrombin (setting [1]) worked out at 131 nM. At human α-thrombin (setting [1]), “Z-D-Dpa-Pro-(CH2 O)-L-BoroMpg-OPin [Example 173]” came in with a Ki of 2390 nM.

On human α-thrombin (setting [1]), “Cbz-D,L-Dpa-Pro-(CO2)boroPhe-OPin [Example 89]” showed a Ki of 39 nM.

`CC1(C)C2CC3OB(C(OC(=O)C4CCCN4C(=O)[C@@H](Cc4ccccc4)NC(=O)OCc4ccccc4)c4ccccc4)OC3(C)C1C2` (stereo partly drawn) [Example 100, Cbz-D-Phe-Pro-.psi.(CO2)-boroPgl pinanediol] gave a Ki on human α-thrombin (setting [1]) of 88 nM. The same measure, in the same setting: then “Z-D-Dpa-Pro(CO2)-L-BoroMpgOPin [Example 116]”, with 283 nM. Still for that read-out and setting: in the case of “Cbz-D-Phe-Pro-.psi.(CO2)-BoroPhe-OPin [Example 88]” it was 129 nM.
